Source: patent EP0492930A2, “Transdermal delivery of dobutamine” (ELI LILLY AND COMPANY, priority 1990, dated 1992)

System: male beagle dogs
Assay: In vivo transdermal delivery: cardiac contractility change in anesthetized dogs
Procedure: To corroborate the in vitro results obtained using formulations of the present invention, the ability of the present formulation to provide transdermal delivery of dobutamine lactobionate through the skin of a living dog was also studied.
Two male beagle dogs were anesthetized with 100 mg/kg of sodium phenobarbitol and prepared for monitoring of electrocardiogram, contractile tension, heart rate and mean arterial pressure. Dobutamine lactobionate was administered by an i.v. bolus (4, 8 and 16 mcg/kg). After each animal's response returned to baseline, 1.0 ml of a formulation containing 218.9 mg of dobutamine lactobionate (100 mg equivalents of dobutamine free base), 2.0 mg of sodium bisulfite, 10.0 mg of n-decyl methyl sulfoxide in 1 ml of water was applied to a 25 cm² shaved area in the groin-abdominal region of each dog. Cardiac contractility changes in each dog were then monitored for the next 3 to 5 hours.
Column 2 discloses the time elapsed from the time the formulation was applied and Column 3 discloses the percent change in contractility (from baseline) observed at the time value shown in Column 2.

`CC(CCc1ccc(O)cc1)NCCc1ccc(O)c(O)c1` (racemic) [dobutamine lactobionate, (±)-N-[3-(4-hydroxyphenyl)-1-methylpropyl]-2-(3,4-dihydroxyphenyl)ethylamine] was tested, and the “% Change In Contractility” value (Method I (applied directly to skin), 20 min) was 30%, the “% Change In Contractility” value (Method I (applied directly to skin), 30 min) was 35% and the “% Change In Contractility” value (Method I (applied directly to skin), 60 min) was 48%. For the same compound, the “% Change In Contractility” value (Method I (applied directly to skin), 90 min) was 21%, the “% Change In Contractility” value (Method I (applied directly to skin), 120 min) was 16% and the “% Change In Contractility” value (Method I (applied directly to skin), 180 min) was 0%. For the same compound, the “% Change In Contractility” value (Method I (applied directly to skin, covered with plastic film), 10 min, 1.0 ml formulation (218.9 mg lactobionate, 10.0 mg n-decyl methyl sulfoxide) on 25 cm² shaved skin, change from baseline) was 16%, the “% Change In Contractility” value (Method II (cellulose triacetate polymer patch), 10 min, 1.0 ml formulation (218.9 mg lactobionate, 10.0 mg n-decyl methyl sulfoxide), change from baseline) was 10% and the “% Change In Contractility” value (Method II (patch), 20 min) was 26%. For the same compound, the “% Change In Contractility” value (Method II (patch), 30 min) was 24%, the “% Change In Contractility” value (Method II (patch), 60 min) was 36% and the “% Change In Contractility” value (Method II (patch), 90 min) was 41%. For the same compound, the “% Change In Contractility” value (Method II (patch), 120 min) was 33%, the “% Change In Contractility” value (Method II (patch), 150 min) was 25% and the “% Change In Contractility” value (Method II (patch), 180 min) was 27%. The “% Change In Contractility” value (Method II (patch), 210 min) was 22%, the “% Change In Contractility” value (Method II (patch), 240 min) was 9% and the “% Change In Contractility” value (Method II (patch), 270 min) was 9%. The “% Change In Contractility” value (Method II (patch), 300 min) was 11%.
